Laboratory results: article PMC12362783 (Advanced Science, 2025)
Where two headings read alike, the source gives them in different places.

Columns and labels:
[1] = target: PARP1 (Homo sapiens, UniProt P09874); experiment: PARP enzymatic inhibition ELISA (PARP1); assay type: biochemical; details: for IC50: n = 3, mean ± SD
Protocol: The PARP activity assay was performed by ChemPartner (Shanghai, China). Each well was precoated with histone (final conc.: 100 ng mL^−1) diluted in PBS buffer (contains 10 mmol L^−1 NaH2PO4 and 150 mmol L^−1 NaCl, pH 7.4) by incubation at 4 °C overnight. […] The reaction was initiated by the addition of 10 µL of PARP (final conc.: 0.007 nM/well) at room temperature for 60 min. Add 20 µL of anti‐Poly/Mono‐ADP Ribose Rabbit mAb. Incubate for 1.5 h at room temperature and wash the plate three times using PBST buffer. […] Incubate for 1 h at room temperature and wash the plate three times using PBST buffer. Add 25 µL Femto‐ECL Substrate A and Femto‐ECL Substrate B (1:1) mix. Immediately read chemiluminescence on Envision (Revvity, USA).

[2] = target: T1, ATR (Homo sapiens, UniProt Q13535); experiment: ATR kinase inhibition, Mobility Shift Assay; assay type: biochemical; details: for IC50: n = 3, mean ± SD
T1 construct: purchased Eurofins 14-953
T1 sequence (Q13535 whole entry): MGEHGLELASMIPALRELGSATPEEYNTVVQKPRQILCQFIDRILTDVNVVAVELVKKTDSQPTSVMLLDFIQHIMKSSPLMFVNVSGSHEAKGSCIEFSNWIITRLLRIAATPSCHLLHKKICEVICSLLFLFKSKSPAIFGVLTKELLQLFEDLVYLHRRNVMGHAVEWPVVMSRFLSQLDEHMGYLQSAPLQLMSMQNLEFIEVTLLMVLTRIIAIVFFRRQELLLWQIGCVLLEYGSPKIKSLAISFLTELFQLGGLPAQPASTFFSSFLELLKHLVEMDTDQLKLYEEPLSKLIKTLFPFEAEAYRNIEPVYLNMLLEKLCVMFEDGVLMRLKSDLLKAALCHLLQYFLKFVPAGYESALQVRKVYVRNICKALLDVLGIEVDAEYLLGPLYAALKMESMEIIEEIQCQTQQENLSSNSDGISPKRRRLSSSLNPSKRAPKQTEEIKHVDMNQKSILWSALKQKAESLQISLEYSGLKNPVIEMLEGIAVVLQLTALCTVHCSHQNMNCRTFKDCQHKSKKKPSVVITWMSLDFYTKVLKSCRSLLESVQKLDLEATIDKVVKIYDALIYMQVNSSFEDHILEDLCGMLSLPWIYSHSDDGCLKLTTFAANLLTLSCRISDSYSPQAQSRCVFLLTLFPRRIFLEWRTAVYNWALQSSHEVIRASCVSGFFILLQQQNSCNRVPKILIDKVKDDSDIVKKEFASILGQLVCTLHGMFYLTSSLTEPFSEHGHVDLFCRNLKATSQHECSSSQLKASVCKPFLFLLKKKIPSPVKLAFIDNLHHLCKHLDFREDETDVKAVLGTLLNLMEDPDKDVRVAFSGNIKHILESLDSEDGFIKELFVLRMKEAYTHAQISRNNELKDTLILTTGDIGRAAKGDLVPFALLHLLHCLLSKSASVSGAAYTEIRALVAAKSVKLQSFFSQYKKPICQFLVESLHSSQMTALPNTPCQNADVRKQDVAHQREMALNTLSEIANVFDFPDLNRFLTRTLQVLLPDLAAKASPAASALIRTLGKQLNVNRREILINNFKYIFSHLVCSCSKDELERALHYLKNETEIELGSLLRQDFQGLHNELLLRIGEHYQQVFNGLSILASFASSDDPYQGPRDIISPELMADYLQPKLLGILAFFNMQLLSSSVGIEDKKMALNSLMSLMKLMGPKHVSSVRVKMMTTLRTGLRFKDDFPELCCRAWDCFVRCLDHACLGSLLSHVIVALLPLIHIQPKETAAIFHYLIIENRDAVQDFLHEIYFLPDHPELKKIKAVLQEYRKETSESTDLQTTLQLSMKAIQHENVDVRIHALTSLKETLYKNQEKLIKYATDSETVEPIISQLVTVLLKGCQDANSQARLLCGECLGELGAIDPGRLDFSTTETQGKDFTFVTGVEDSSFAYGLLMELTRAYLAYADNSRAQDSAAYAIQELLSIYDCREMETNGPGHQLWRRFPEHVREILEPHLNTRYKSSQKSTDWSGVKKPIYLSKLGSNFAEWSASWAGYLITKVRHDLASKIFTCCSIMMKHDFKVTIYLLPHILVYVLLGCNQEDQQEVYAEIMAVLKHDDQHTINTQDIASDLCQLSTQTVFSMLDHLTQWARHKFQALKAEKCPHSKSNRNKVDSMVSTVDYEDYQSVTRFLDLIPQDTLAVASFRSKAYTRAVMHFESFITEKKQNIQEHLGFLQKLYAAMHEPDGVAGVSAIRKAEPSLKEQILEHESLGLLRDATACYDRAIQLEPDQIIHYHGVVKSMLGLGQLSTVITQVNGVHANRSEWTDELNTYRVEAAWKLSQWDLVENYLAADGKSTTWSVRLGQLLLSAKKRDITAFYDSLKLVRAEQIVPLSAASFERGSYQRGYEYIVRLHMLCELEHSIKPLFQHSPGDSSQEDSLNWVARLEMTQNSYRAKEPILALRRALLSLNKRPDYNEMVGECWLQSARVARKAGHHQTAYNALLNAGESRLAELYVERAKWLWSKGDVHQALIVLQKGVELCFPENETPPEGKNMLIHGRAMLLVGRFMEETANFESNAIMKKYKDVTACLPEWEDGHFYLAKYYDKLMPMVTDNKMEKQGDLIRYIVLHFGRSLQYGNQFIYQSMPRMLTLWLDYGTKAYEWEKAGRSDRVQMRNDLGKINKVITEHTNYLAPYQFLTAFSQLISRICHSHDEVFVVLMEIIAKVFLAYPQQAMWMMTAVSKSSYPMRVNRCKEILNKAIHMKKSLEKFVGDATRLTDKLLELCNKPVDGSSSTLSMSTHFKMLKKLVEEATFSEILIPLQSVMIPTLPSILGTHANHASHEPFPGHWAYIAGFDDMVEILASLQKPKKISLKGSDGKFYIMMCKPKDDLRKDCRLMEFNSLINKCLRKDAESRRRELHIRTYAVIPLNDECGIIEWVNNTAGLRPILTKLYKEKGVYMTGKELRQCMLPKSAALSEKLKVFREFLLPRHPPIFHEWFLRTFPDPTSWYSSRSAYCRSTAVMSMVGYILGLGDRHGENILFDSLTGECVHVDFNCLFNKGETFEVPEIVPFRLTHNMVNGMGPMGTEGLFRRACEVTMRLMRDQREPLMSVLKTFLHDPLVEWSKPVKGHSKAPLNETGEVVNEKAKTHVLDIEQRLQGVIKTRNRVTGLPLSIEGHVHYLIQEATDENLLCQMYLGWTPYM
T1 sequence (Q8WXE1 whole entry partner): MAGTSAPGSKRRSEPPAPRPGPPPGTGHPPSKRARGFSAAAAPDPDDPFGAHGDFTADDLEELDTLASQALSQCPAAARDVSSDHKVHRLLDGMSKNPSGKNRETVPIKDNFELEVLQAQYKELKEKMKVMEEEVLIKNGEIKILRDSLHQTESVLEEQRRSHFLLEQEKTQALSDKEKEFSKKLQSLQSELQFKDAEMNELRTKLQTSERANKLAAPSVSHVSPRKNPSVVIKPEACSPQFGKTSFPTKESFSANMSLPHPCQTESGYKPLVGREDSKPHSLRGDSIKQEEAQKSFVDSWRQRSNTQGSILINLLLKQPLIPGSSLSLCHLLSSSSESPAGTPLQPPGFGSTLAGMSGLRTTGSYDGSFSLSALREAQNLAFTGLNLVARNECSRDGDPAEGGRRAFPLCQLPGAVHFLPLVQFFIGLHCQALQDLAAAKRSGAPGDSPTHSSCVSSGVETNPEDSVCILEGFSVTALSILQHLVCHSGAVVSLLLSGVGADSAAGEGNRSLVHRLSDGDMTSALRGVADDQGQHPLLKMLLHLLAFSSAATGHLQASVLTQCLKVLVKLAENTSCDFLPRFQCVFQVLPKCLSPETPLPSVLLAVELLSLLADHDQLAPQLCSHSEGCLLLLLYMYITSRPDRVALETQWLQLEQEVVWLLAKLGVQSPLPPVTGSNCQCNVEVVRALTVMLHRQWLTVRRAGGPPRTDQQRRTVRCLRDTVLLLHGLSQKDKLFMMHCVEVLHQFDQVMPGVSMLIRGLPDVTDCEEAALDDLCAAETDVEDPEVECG
Protocol: The in vitro ATR kinase inhibitory activities were determined by ChemPartner Co., Ltd. (Shanghai, China) using the Mobility Shift Assay. The tested compound was dissolved with DMSO and diluted to 1000/3 × of the final desired highest inhibitor concentration in the reaction. […] The assay wells were incubated at 28 °C for 4 h.

[3] = test system: TNBC cells (MDA‐MB‐231, MDA‐MB‐468, MDA‐MB‐436); experiment: Anti‐proliferative activity across three TNBC cell lines (summary); assay type: cell-based
Protocol: Cells were grown at 37 °C, under 95% air and 5% CO₂ until they reached about 70% confluence and were subcultured at least twice before the experiment. Cells were seeded at a density of 1000 cells/well in two 384‐well white plates, and the plates were placed in a 5% CO₂ incubator overnight. Growth viability was determined by the CellTiter‐Glo luminescent viability assay (Promega) 5 days after drug treatment. Cell viability was measured immediately after dosing (Day 0) and after 5 days of incubation using CellTiter‐Glo (CTG, Promega, G7573). Relative viability was calculated by normalizing the raw luminescence counts of the treated groups to those of the DMSO control groups. IC₅₀ values were calculated using sigmoidal dose‐response curve fitting with GraphPad Prism 9.0 software.

[4] = test system: MDA‐MB‐436; experiment: Cell growth inhibition, CellTiter‐Glo (CTG); assay type: cell-based; details: CTG, 5 days, n = 3
Protocol: (§1) All cells were grown in a humidified incubator at 37 °C and 5% CO2.
(§2) Growth viability was determined by the CellTiter‐Glo luminescent viability assay (Promega) 5 days after drug treatment. Cell viability was measured immediately after dosing (Day 0) and after 5 days of incubation using CellTiter‐Glo (CTG, Promega, G7573). Relative viability was calculated by normalizing the raw luminescence counts of the treated groups to those of the DMSO control groups. IC₅₀ values were calculated using sigmoidal dose‐response curve fitting with GraphPad Prism 9.0 software.

[5] = test system: MDA‐MB‐468; experiment: Cell growth inhibition, CellTiter‐Glo (CTG); assay type: cell-based; details: Homo sapiens, MDA-MB-468, 120 h; CTG, 5 days, n = 3
Protocol: as §1
(§3) […] […] Relative viability was calculated by normalizing the raw luminescence counts of the treated groups to those of the DMSO control groups. IC₅₀ values were calculated using sigmoidal dose‐response curve fitting with GraphPad Prism 9.0 software.

[6] = test system: MDA‐MB‐231; experiment: Cell growth inhibition, CellTiter‐Glo (CTG); assay type: cell-based; details: Homo sapiens, MDA-MB-231, 120 h, read-out: IC50 MDA‐MB‐231; CTG, 5 days, n = 3
Protocol: as §1, §3

[7] = test system: MDA‐MB‐231 cells; experiment: Cell apoptosis assay, Annexin V‐FITC/PI; assay type: cell-based; details: MDA‐MB‐231, 72 h
Protocol: (§4) The cell apoptosis analysis was performed with cells seeded in 6‐well plates in growth media. The cells were allowed to attach overnight (8 h). The cultures were treated with different tested drugs for 72 h and evaluated using an Annexin V Flow Kit (BioLegend#B367750) according to the manufacturer's instructions. The data were analyzed by FlowJo software (Tree Star, Inc., Ashland, OR).

[8] = test system: MDA‐MB‐468 cells; experiment: Cell apoptosis assay, Annexin V‐FITC/PI; assay type: cell-based; details: MDA‐MB‐468, 72 h
Protocol: as §4

[9] = test system: MDA‐MB‐231 cells; experiment: Cell cycle assay, flow cytometry (PI); assay type: cell-based; details: MDA‐MB‐231, 48 h; A7, B8 0.5 and 1.0 µM, controls 1.0 µM
Protocol: (§5) The cell cycle analysis was performed with cells seeded in 6‐well plates in growth media. The cells were allowed to attach overnight (8 h). The cultures were treated with different tested drugs for 48 h. After treatment, cells were collected and fixed with 70% pre‐cold ethanol in PBS and stored at −20 °C overnight. Then washed the cells with PBS twice, and incubated with 100 µg mL^−1 RNase A at 37 °C for 1 h, stained with propidium iodide for 30 min avoid light at room temperature. The stained cells were analyzed by flow cytometry. The percentages of cells in the G1, S, and G2/M phases were determined. The data were analyzed by FlowJo software (Tree Star, Inc., Ashland, OR).

[10] = test system: MDA‐MB‐468 cells; experiment: Cell cycle assay, flow cytometry (PI); assay type: cell-based; details: MDA‐MB‐468, 48 h; A7, B8 0.5 and 1.0 µM, controls 1.0 µM
Protocol: as §5

[11] = test system: MDA‐MB‐453; experiment: Cell growth inhibition, CellTiter‐Glo (CTG); assay type: cell-based; details: Homo sapiens
Protocol: as §2

[12] = test system: MCF‐7; experiment: Cell growth inhibition, CellTiter‐Glo (CTG); assay type: cell-based; details: Homo sapiens, MCF7; n = 3
Protocol: as §2

[13] = test system: MCF‐10A; experiment: Cell growth inhibition, normal breast cell line; assay type: cell-based; details: Homo sapiens, MCF-10A; @30 µM; read-out: MCF‐10A inhibitory rate at certain concentration
Protocol: as §2

[14] = Homo sapiens, MDA-MB-436, 120 h

Sequence of PARP1 (P09874 whole entry): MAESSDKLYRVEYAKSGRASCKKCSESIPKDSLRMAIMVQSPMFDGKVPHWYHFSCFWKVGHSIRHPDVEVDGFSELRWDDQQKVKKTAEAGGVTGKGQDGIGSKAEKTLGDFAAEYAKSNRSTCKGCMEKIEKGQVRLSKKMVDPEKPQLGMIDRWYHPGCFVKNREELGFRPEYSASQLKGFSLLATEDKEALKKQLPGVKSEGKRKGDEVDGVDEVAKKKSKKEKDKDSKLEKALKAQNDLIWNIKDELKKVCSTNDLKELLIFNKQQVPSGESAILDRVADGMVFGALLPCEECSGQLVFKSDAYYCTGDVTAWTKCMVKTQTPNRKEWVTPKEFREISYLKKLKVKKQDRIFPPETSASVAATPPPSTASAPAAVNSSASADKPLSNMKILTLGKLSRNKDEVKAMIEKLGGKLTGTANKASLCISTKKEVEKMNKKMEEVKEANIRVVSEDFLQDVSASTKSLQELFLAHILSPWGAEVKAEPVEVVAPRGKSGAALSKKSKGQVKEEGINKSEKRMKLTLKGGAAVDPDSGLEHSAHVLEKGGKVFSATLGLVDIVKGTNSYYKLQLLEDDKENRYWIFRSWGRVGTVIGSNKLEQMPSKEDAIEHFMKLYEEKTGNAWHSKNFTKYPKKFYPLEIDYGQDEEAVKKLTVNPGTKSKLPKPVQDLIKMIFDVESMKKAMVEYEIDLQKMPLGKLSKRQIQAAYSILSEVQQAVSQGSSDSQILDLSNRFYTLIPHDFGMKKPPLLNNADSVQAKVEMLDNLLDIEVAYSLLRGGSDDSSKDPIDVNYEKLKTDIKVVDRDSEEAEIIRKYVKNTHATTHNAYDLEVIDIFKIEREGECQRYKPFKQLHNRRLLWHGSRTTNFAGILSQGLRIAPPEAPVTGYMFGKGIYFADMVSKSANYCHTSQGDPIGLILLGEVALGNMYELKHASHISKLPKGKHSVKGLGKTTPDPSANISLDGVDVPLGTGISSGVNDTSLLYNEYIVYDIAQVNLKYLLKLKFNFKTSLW

| activity against PARP1 (SAR summary in words, Figure 7) [1] | IC50 [1] [nM] | activity against ATR (SAR summary in words, Figure 7) [2] | IC50 [2] [nM] | SMILES | activity against TNBC cells (SAR summary in words, Figure 7) [3] | IC50 [4, 14] [µM] | IC50 [5] [µM] | IC50 [6] [µM] | ability to induce apoptosis vs combination of AZD6738 and Olaparib [7] | ability to induce apoptosis vs combination of AZD6738 and Olaparib [8] | effect on cell cycle distribution [9] | effect on cell cycle distribution [10] | IC50 [4] [µM] | IC50 ([11]; MDA-MB-453, n = 3, read-out: IC50 MAD‐MB‐453) [nM] | IC50 [12] [nM] | inhibition at 30 µM [13] [%] | IC50 ([11]; MDA-MB-453, read-out: IC50 MAD‐MB‐453) [nM] |
| --- | --- | --- | --- | --- | --- | --- | --- | --- | --- | --- | --- | --- | --- | --- | --- | --- | --- |
| moderate activity | 1150 ± 43 | moderate activity | 215 ± 22 | C[C@@H]1COCCN1c1cc(C2(NC(=O)c3cc(Cc4n[nH]c(=O)c5ccccc45)ccc3F)CC2)nc(-c2ccnc3[nH]ccc23)n1 [Compound A1, (R)‐2‐fluoro‐N‐(1‐(6‐(3‐methylmorpholino)‐2‐(1H‐pyrrolo[2,3‐b]pyridin‐4‐yl)pyrimidin‐4‐yl)cyclopropyl)‐5‐((4‐oxo‐3,4‐dihydrophthalazin‐1‐yl)methyl)benzamide] | weak activity | 2.92 ± 2.05 | 8.54 ± 1.07 | 5.26 ± 1.14 | – | – | – | – | – | – | – | – | – |
| – | 0.56 ± 0.21 | – | 43 ± 7 | C[C@@H]1COCCN1c1cc(C2(NC(=O)c3ccc(C(=O)N4CCN(C(=O)c5cc(Cc6n[nH]c(=O)c7ccccc67)ccc5F)CC4)cc3)CC2)nc(-c2ccnc3[nH]ccc23)n1 [Compound A7, (R) ‐4‐(4‐(2‐fluoro‐5‐((4‐oxo‐3,4‐dihydrophthalazin‐1‐yl)methyl)benzoyl)piperazine‐1‐carbonyl)‐N‐(1‐(6‐(3‐methylmorpholino)‐2‐(1H‐pyrrolo[2,3‐b]pyridin‐4‐yl)pyrimidin‐4‐yl)cyclopropyl)benzamide] | – | 0.015 ± 0.001 | 0.23 ± 0.07 | 13.4 ± 3.44 | does not show a significant enhancement | does not show a significant enhancement | did not demonstrate any significant effects on the cell cycle | did not demonstrate any significant effects on the cell cycle | – | – | – | – | – |
| – | – | – | – | C[C@@H]1COCCN1c1cc(C2([S@](C)(=N)=O)CC2)nc(-c2cc[nH]c3nccc2-3)n1 [8 (AZD6738), Ceralasertib, reference compound] | – | 3.8 | 18.6 ± 1.75 | – | – | – | – | did not significantly change the cell cycle distribution | 3.84 ± 0.52 | 1460 ± 170 | 2010 ± 430 | 25.9 | – |
| moderate activity | 420 ± 31 | moderate activity | 39.5 ± 3.7 | C[C@@H]1COCCN1c1cc(CNC(=O)c2cc(Cc3n[nH]c(=O)c4ccccc34)ccc2F)nc(-c2ccnc3[nH]ccc23)n1 [Compound B1, (R)‐2‐fluoro‐N‐((6‐(3‐methylmorpholino)‐2‐(1H‐pyrrolo[2,3‐b]pyridin‐4‐yl)pyrimidin‐4‐yl)methyl)‐5‐((4‐oxo‐3,4‐dihydrophthalazin‐1‐yl)methyl)benzamide] | weak activity | 0.91 ± 0.05 | 7.88 ± 1.14 | 3.05 ± 0.76 | – | – | – | – | – | – | – | – | – |
| – | – | – | – | O=C(c1cc(Cc2n[nH]c(=O)c3ccccc23)ccc1F)N1CCN(C(=O)C2CC2)CC1 [1 (Olaparib), Olaparib, reference compound] | – | 4.5 | 10.5 ± 0.59 | 21.9 ± 2.36 | – | – | did not significantly change the cell cycle distribution | did not significantly change the cell cycle distribution | 4.53 ± 0.21 | – | > 30000 | 14.5 | > 30000 |
| – | 1.08 ± 0.74 | – | 143 ± 11 | C[C@@H]1COCCN1c1cc(C2(NC(=O)C3CCN(C(=O)c4cc(Cc5n[nH]c(=O)c6ccccc56)ccc4F)CC3)CC2)nc(-c2ccnc3[nH]ccc23)n1 [Compound A5, (R)‐1‐(2‐fluoro‐5‐((4‐oxo‐3,4‐dihydrophthalazin‐1‐yl)methyl)benzoyl)‐N‐(1‐(6‐(3‐methylmorpholino)‐2‐(1H‐pyrrolo[2,3‐b]pyridin‐4‐yl)pyrimidin‐4‐yl)cyclopropyll)piperidine‐4‐carboxamide] | – | 0.57 ± 0.04 | 0.57 ± 0.08 | 3.63 ± 1.41 | – | – | – | – | – | – | – | – | – |
